Source: BindingDB's records for doi:10.1016/s0968-0896(01)00282-6 (Purdue University, 2002)

Target: T1, Gag-Pol polyprotein [588-1027]/[588-1147] (Human immunodeficiency virus 1, UniProt P04585)
T1 construct: 588-1027; 588-1147
Test: HIV-1 RT Assay
Conditions: pH 7.9

Structure (SMILES) | IC50 [µM]
COC(=O)CCCCC(=O)c1cc(C)c(OC)c(C(=O)OC)c1 [Methyl 6-[4-methoxy-5-(methoxycarbonyl)-3-methylphenyl]-6-oxohexanoate] | 100
COC(=O)CCCC=C(c1ccc(OC)c(Cl)c1)c1ccc(OC)c(Cl)c1 [Alkenyldiarylmethane (ADAM) 9b] | 100
COC(=O)CCC/C=C(/c1cc(C)c(OC)c(C(=O)OC)c1)c1cc(Cl)c(OC)c(C(=O)OC)c1 [Alkenyldiarylmethane (ADAM) 4b] | 0.516
COC(=O)CCC/C(=C\c1ccc(OC)c(Cl)c1)c1ccc(OC)c(Cl)c1 [methyl (5E)-5,6-bis(3-chloro-4-methoxyphenyl)hex-5-enoate] | 100
COC(=O)CCC/C=C/c1cc(C)c(OC)c(C(=O)OC)c1 [methyl 2-methoxy-5-[(1E)-6-methoxy-6-oxohex-1-en-1-yl]-3-methylbenzoate] | 100
COC(=O)CCC/C=C(/c1ccc(OC)c(OC)c1)c1cnccn1 [methyl (5Z)-6-(3,4-dimethoxyphenyl)-6-(pyrazin-2-yl)hex-5-enoate] | 100
COC(=O)CCC/C=C(/c1ccc(OC)c(C(=O)OC)c1)c1cc(Cl)c(OC)c(C(=O)OC)c1 [Alkenyldiarylmethane (ADAM) 5b] | 0.587
COC(=O)CCC/C=C(/c1ccc(OC)c(OC)c1)c1cc(C)c(OC)c(C(=O)OC)c1 [Methyl (5Z)-6-(3,4-dimethoxyphenyl)-6-[4-methoxy-3-(methoxycarbonyl)-5-methylphenyl]hex-5-enoate] | 0.074
COC(=O)CCCC#Cc1cc(C)c(OC)c(C(=O)OC)c1 [methyl 2-methoxy-5-(6-methoxy-6-oxohex-1-yn-1-yl)-3-methylbenzoate] | 100
COC(=O)CCCCCc1cc(C)c(OC)c(C(=O)OC)c1 [Methyl 6-[4-methoxy-5-(methoxycarbonyl)-3-methylphenyl]hexanoate] | 1.75
COC(=O)CCC/C=C\c1cc(C)c(OC)c(C(=O)OC)c1 [Alkenyldiarylmethane (ADAM) 10b] | 88.2
COC(=O)CCCC=C(c1ccc(OC)c(C(=O)OC)c1)c1ccc(OC)c(C(=O)OC)c1 [methyl 2-methoxy-5-{6-methoxy-1-[4-methoxy-3-(methoxycarbonyl)phenyl]-6-oxohex-1-en-1-yl}benzoate] | 0.504
